Measured values published in the NIST ThermoML archive (doi:10.1021/je5010214).

Conditions: Liquid, Vibrating tube method

CCCCO [butan-1-ol]
Conditions | mass density [kg/m3]
323.15 K, 34081 kPa | 811.155
323.15 K, 35113 kPa | 811.773
323.15 K, 37953 kPa | 813.623
323.15 K, 42011 kPa | 816.075
323.15 K, 48025 kPa | 819.642
323.15 K, 49934 kPa | 820.799
323.15 K, 52114 kPa | 821.994
323.15 K, 54964 kPa | 823.594
323.15 K, 58045 kPa | 825.293
323.15 K, 60050 kPa | 826.448
323.15 K, 62131 kPa | 827.565
323.15 K, 64999 kPa | 829.093
323.16 K, 920.7 kPa | 786.888
323.16 K, 27958 kPa | 807.28
323.16 K, 30055 kPa | 808.674
323.16 K, 33067 kPa | 810.61
323.16 K, 40047 kPa | 814.861
323.16 K, 44937 kPa | 817.856
323.16 K, 66131 kPa | 829.687
328.15 K, 97.9 kPa | 781.987
328.15 K, 289.9 kPa | 782.179
328.15 K, 897.5 kPa | 782.733
328.15 K, 994.1 kPa | 782.825
328.15 K, 1988.8 kPa | 783.741
328.15 K, 2996.7 kPa | 784.66
328.15 K, 5013.4 kPa | 786.446
328.15 K, 6974.9 kPa | 788.15
328.15 K, 9017 kPa | 789.881
328.15 K, 10040 kPa | 790.727
328.15 K, 24924 kPa | 802.164
328.15 K, 27979 kPa | 804.324
328.15 K, 29958 kPa | 805.68
328.15 K, 32060 kPa | 807.104
328.15 K, 33066 kPa | 807.772
328.15 K, 33107 kPa | 807.703
328.15 K, 34013 kPa | 808.285
328.15 K, 35030 kPa | 808.989
328.15 K, 38010 kPa | 810.915
328.15 K, 39969 kPa | 812.181
328.15 K, 41959 kPa | 813.311
328.15 K, 44953 kPa | 815.144
328.15 K, 47978 kPa | 816.959
328.15 K, 49927 kPa | 818.128
328.15 K, 51997 kPa | 819.32
328.15 K, 54947 kPa | 821.045
328.15 K, 57939 kPa | 822.658
328.15 K, 59991 kPa | 823.77
328.15 K, 61982 kPa | 824.89
328.15 K, 65032 kPa | 826.439
328.15 K, 66046 kPa | 826.965
328.16 K, 501 kPa | 782.371
328.16 K, 12210 kPa | 792.522
328.16 K, 15055 kPa | 794.783
328.16 K, 18061 kPa | 797.122
328.16 K, 20279 kPa | 798.799
328.16 K, 22013 kPa | 800.057
333.15 K, 532.6 kPa | 779.903
333.15 K, 897.8 kPa | 780.245
333.15 K, 1987.2 kPa | 781.249
333.15 K, 3023.4 kPa | 782.177
333.15 K, 4997.4 kPa | 783.921
333.15 K, 7002.4 kPa | 785.686
333.15 K, 9032 kPa | 787.401
333.15 K, 10210 kPa | 788.367
333.15 K, 15008 kPa | 792.251
333.15 K, 22034 kPa | 797.567
333.15 K, 28040 kPa | 801.782
333.15 K, 30016 kPa | 803.156
333.15 K, 32067 kPa | 804.524
333.15 K, 34086 kPa | 805.827
333.15 K, 35075 kPa | 806.492
333.15 K, 37894 kPa | 808.332
333.15 K, 40111 kPa | 809.759
333.15 K, 41947 kPa | 810.938
333.15 K, 44974 kPa | 812.823
333.15 K, 45490 kPa | 813.093
333.15 K, 47936 kPa | 814.509
333.15 K, 49920 kPa | 815.727
333.15 K, 51953 kPa | 816.927
333.15 K, 54876 kPa | 818.691
333.15 K, 58057 kPa | 820.5
333.15 K, 59993 kPa | 821.547
333.15 K, 62049 kPa | 822.689
333.15 K, 64970 kPa | 824.293
333.15 K, 66005 kPa | 824.853
333.16 K, 87.7 kPa | 779.482
333.16 K, 303.5 kPa | 779.691
333.16 K, 1003 kPa | 780.346
333.16 K, 12011 kPa | 789.847
333.16 K, 17992 kPa | 794.568
333.16 K, 20036 kPa | 796.123
333.16 K, 25027 kPa | 799.667
333.16 K, 33073 kPa | 805.134
338.15 K, 80.9 kPa | 775.106
338.15 K, 309.8 kPa | 775.333
338.15 K, 561.6 kPa | 775.578
338.15 K, 898.5 kPa | 775.911
338.15 K, 1014.1 kPa | 776.019
338.15 K, 2936.1 kPa | 777.859
338.15 K, 5018.6 kPa | 779.821
338.15 K, 10034 kPa | 784.276
338.15 K, 14885 kPa | 788.349
338.15 K, 17956 kPa | 790.925
338.15 K, 19927 kPa | 792.473
338.15 K, 22041 kPa | 794.077
338.15 K, 25026 kPa | 796.362
338.15 K, 29994 kPa | 799.911
338.15 K, 32882 kPa | 801.907
338.15 K, 33937 kPa | 802.603
338.15 K, 35012 kPa | 803.345
338.15 K, 39987 kPa | 806.717
338.15 K, 41990 kPa | 808.025
338.15 K, 44978 kPa | 809.926
338.15 K, 47971 kPa | 811.881
338.15 K, 49999 kPa | 813.099
338.15 K, 52127 kPa | 814.375
338.15 K, 57940 kPa | 817.865
338.15 K, 60014 kPa | 819.058
338.15 K, 65012 kPa | 821.872
338.15 K, 66057 kPa | 822.451
338.16 K, 2000.2 kPa | 776.987
338.16 K, 6917.3 kPa | 781.55
338.16 K, 9046.9 kPa | 783.457
338.16 K, 11959 kPa | 785.981
338.16 K, 27976 kPa | 798.446
338.16 K, 31949 kPa | 801.318
338.16 K, 37962 kPa | 805.345
338.16 K, 54992 kPa | 816.085
338.16 K, 62074 kPa | 820.252
338.16 K, 67534 kPa | 823.221
343.15 K, 73.7 kPa | 769.631
343.15 K, 297.3 kPa | 769.853
343.15 K, 520.3 kPa | 770.07
343.15 K, 911.7 kPa | 770.459
343.15 K, 1017.7 kPa | 770.563
343.15 K, 1994.6 kPa | 771.497
343.15 K, 2332.5 kPa | 771.83
343.15 K, 2968.3 kPa | 772.434
343.15 K, 4994.8 kPa | 774.313
343.15 K, 6976.6 kPa | 776.117
343.15 K, 9002.6 kPa | 777.941
343.15 K, 10060 kPa | 778.847
343.15 K, 12025 kPa | 780.506
343.15 K, 14928 kPa | 782.929
343.15 K, 17975 kPa | 785.398
343.15 K, 19985 kPa | 786.983
343.15 K, 22033 kPa | 788.56
343.15 K, 25091 kPa | 790.858
343.15 K, 28045 kPa | 793.012
343.15 K, 30082 kPa | 794.441
343.15 K, 32170 kPa | 795.891
343.15 K, 33097 kPa | 796.546
343.15 K, 35030 kPa | 797.771
343.15 K, 37943 kPa | 799.701
343.15 K, 40012 kPa | 801.058
343.15 K, 41972 kPa | 802.307
